This assay relates to non-metastatic and metastatic GFP-luciferase ES cell lines (RD-ES, SK-N-MC). The experiment in a line: Luminescence viability of GFP-luciferase ES cell monolayers. In kind it is cell-based, human. The note with it: 12 μM over 72 hours; both the non-metastatic and metastatic cell lines. The protocol: MTT viability assay was used to determine drug toxicity, with luminescence generated by viable cells measured at the endpoint (10^4 cells per well, mean±s.e.m., n=3). […] In order to determine cancer cell viability, cells were lysed and treated with luciferin using a Bright-Glo™ assay, with subsequent luminescence measured (10^4 cells per well, mean±s.e.m., n=3).
Cell viability was analyzed using a previously established protocol. Cancer cell viability was measured for GFP-Luciferase labelled cancer cells using ONE-Glo luciferase substrate that was prepared according to manufacturer's protocol (Promega). Samples were collected following 3, 7, and 21 days cycles of linsitinib treatment. Where noted, longitudinal cell viability was also assessed using luminescence, though at the cost of signal strength. Briefly, in vivo grade VivoGlo™ Luciferin (Promega) was made at a 200× stock concentration (30 mg/ml) in water, added to sample culture media at a 1:200 dilution, and scanned using a spectrophotometer (Biotek). Some of the IC50 values were determined using cell viability data generated using an MTT assay (RealTime-Glo™ MT Cell Viability Assay, Promega) that were analyzed according to manufacturer's protocol.

`C[C@]1(O)C[C@@H](c2nc(-c3ccc4ccc(-c5ccccc5)nc4c3)c3c(N)nccn32)C1` [linsitinib]: the “drug efficacy (luminescence viability)” value was “significant drug efficacy”.
